Active and inactive are the calls of the source. The rule behind the calls is not given here.
Assays:
Homo sapiens [1] = species on record: Homo sapiens; assay: Chondrogenic activity in human ASC assessed as increase in aggrecan expression at 1 uM incubated for 11 days by sandwich ELISA relative to control; format: functional
Homo sapiens [2] = species on record: Homo sapiens; assay: Chondrogenic activity in human ASC assessed as increase in aggrecan expression at 10 uM incubated for 11 days by sandwich ELISA relative to control; format: functional
Rattus norvegicus [3] = species on record: Rattus norvegicus; assay: Induction of cartilage repair in collagenase2-induced osteoarthritis rat model assessed as recovery of cartilage thickness at 10 uM on day 7 and 21 by safranin O/fast green staining-based optical microscopic analysis; format: functional, organism-based
Homo sapiens [4] = species on record: Homo sapiens; assay: Induction of differentiation in human ASC after 11 days by alcian blue staining based analysis relative to control; format: functional
Rattus norvegicus [5] = species on record: Rattus norvegicus; assay: Upregulation of aggrecan expression in collagenase2-induced osteoarthritis rat model injected with 10 uM compound on day 7 and 21 by immunohistochemistry; format: functional, organism-based
Homo sapiens [6] = species on record: Homo sapiens; assay: Chondrogenic activity in human ASC assessed as increase in aggrecan expression incubated for 11 days by sandwich ELISA relative to control; format: functional
Rattus norvegicus [7] = species on record: Rattus norvegicus; assay: Induction of cartilage repair in collagenase2-induced osteoarthritis rat model assessed as recovery of cartilage thickness injected with 10 uM compound-treated human ASC on day 7 and 21 by safranin O/fast green staining-based optical microscopic analysis; format: functional, organism-based
Rattus norvegicus [8] = species on record: Rattus norvegicus; assay: Induction of cartilage repair in collagenase2-induced osteoarthritis rat model assessed as increase in proteoglycan content injected with 10 uM compound-treated human ASC + on day 7 and 21 by safranin O/fast green staining-based optical microscopic analysis; format: functional, organism-based
Rattus norvegicus [9] = species on record: Rattus norvegicus; assay: Upregulation of aggrecan expression in collagenase2-induced osteoarthritis rat model injected with 10 uM compound-treated human ASC on day 7 and 21 by immunohistochemistry; format: functional, organism-based
Homo sapiens [10] = species on record: Homo sapiens; assay: Chondrogenic activity in human ASC assessed as increase in aggrecan expression at 10 uM incubated for 11 days in presence of MEK inhibitor U0126 by sandwich ELISA relative to control; format: functional
Homo sapiens [11] = species on record: Homo sapiens; assay: Upregulation of ERK phosphorylation in human ASC at 0.1 to 1 uM by Western blot analysis; conditions: TDE = time-dependent effect

SMILES	Activity (Homo sapiens [1])	Activity (Homo sapiens [2])	other results
O=S(=O)(Nc1cccc2ccc(O)cc12)c1cccc2cccnc12			fold change (FC) (Homo sapiens [1]): 2; fold change (FC) (Homo sapiens [2]): 2
CCN(c1cc(O)ccc1C)S(=O)(=O)c1ccc2ccccc2c1	inactive	inactive	
O=S(=O)(Nc1ccc(O)cc1)c1cccc2cccnc12			fold change (FC) (Homo sapiens [1]): 2; Activity (Rattus norvegicus [3]): Active; fold change (FC) (Homo sapiens [4]): 3; Activity (Rattus norvegicus [5]): Active; fold change (FC) (Homo sapiens [2]): 2; Activity (Homo sapiens [6]): Dose-dependent effect; Activity (Rattus norvegicus [7]): Active; Activity (Rattus norvegicus [8]): Active; Activity (Rattus norvegicus [9]): Active; Activity (Homo sapiens [10]): inactive; Activity (Homo sapiens [11]): Tde
CC(C)(C)c1ccc(S(=O)(=O)Nc2ccc(O)c(F)c2)cc1	inactive		
O=[N+]([O-])c1cc(NS(=O)(=O)c2ccc3ccccc3c2)ccc1O	inactive	Active	
Cc1ccc(S(=O)(=O)Nc2cccc3ccc(O)cc23)cc1	inactive	Active	
O=S(=O)(Nc1ccc(O)cc1Cl)c1ccc2ccccc2c1	inactive	Active	
CC(C)(C)c1ccc(S(=O)(=O)Nc2ccc(O)c(C(=O)O)c2)cc1			fold change (FC) (Homo sapiens [1]): 2; fold change (FC) (Homo sapiens [2]): 2
O=S(=O)(Nc1ccc(O)cc1Cl)c1ccc(-c2ccccc2)cc1	inactive		
O=S(=O)(NC1CCC(CCO)CC1)c1ccc(-c2ccccc2)cc1 (configuration not stated)	inactive	inactive	
CC(C)(C)c1ccc(S(=O)(=O)Nc2ccc(O)cc2Cl)cc1	inactive		
CC(C)(C)c1ccc(S(=O)(=O)Nc2ccc(O)cc2F)cc1	inactive		
O=S(=O)(NCCc1ccc(O)c(O)c1)c1ccc(-c2ccccc2)cc1	inactive	inactive	
O=S(=O)(Nc1ccc(O)c(F)c1)c1ccc(-c2ccccc2)cc1	inactive		
O=C(O)c1cc(NS(=O)(=O)c2cccc3cccnc23)ccc1O			fold change (FC) (Homo sapiens [1]): 2; fold change (FC) (Homo sapiens [2]): 2
O=S(=O)(NC1CCC(CCO)CC1)c1ccc2ccccc2c1 (configuration not stated)	inactive	inactive	
Cc1ccc(S(=O)(=O)Nc2cccc3c(O)cccc23)cc1	inactive	Active	
CC(C)(C)c1ccc(S(=O)(=O)Nc2cccc(O)c2)cc1	inactive		
O=S(=O)(Nc1ccc(O)cc1F)c1ccc2ccccc2c1	inactive	Active	
O=S(=O)(Nc1ccc(O)cc1F)c1ccc(-c2ccccc2)cc1	inactive		
O=S(=O)(Nc1ccc(O)cc1)c1ccc2ccccc2c1	inactive	inactive	
CCN(c1cc(O)ccc1C)S(=O)(=O)c1ccc(C(C)(C)C)cc1	inactive	inactive	
CC(C)(C)c1ccc(S(=O)(=O)NCCc2ccc(O)c(O)c2)cc1	inactive	inactive	
O=S(=O)(NCCc1ccc(O)c(O)c1)c1ccc2ccccc2c1	inactive	inactive	
O=S(=O)(Nc1cccc2c(O)cccc12)c1ccc(-c2ccccc2)cc1			fold change (FC) (Homo sapiens [1]): 2; fold change (FC) (Homo sapiens [2]): 2
CC(C)(C)c1ccc(S(=O)(=O)NC2CCC(CCO)CC2)cc1 (configuration not stated)	inactive	inactive	
O=S(=O)(Nc1ccc(O)c(F)c1)c1ccc2ccccc2c1	inactive		
Cc1ccc(S(=O)(=O)Nc2ccc(O)c3ccccc23)cc1			fold change (FC) (Homo sapiens [1]): 2; fold change (FC) (Homo sapiens [2]): 2

Source: ChEMBL document CHEMBL4428103, “Potential therapeutic application of small molecule with sulfonamide for chondrogenic differentiation and articular cartilage repair” (Bioorg Med Chem Lett, 2016)
